The values that follow come from PubChem BioAssay AID330 (DTP/NCI, 2004).

The assay deals with P388 leukemia ip, CD2F1 mice, survival T/C. Kind of assay: NCI In Vivo Anticancer Drug Screen. Data for tumor model P388 Leukemia (intraperitoneal) in CD2F1 (CDF1) mice. Conditions: endpoint: median survival time, higher = longer survival. In outline:
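Mice carrying the transplanted tumor received test compound or vehicle. Survival was recorded in each group, and the value is the treated-group measurement divided by that of the vehicle-treated control group.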

[1] abbreviates: dose: 50.0 mg/kg/injection, schedule: Q01DX009 (ip), vehicle: Klucel (hydroxypropylcellulose) (HPC).
Setting [2] is: dose: 100.0 mg/kg/injection, schedule: Q01DX009 (ip), vehicle: Klucel (hydroxypropylcellulose) (HPC).
Where [3] appears, read: dose: 200.0 mg/kg/injection, schedule: Q01DX009 (ip), vehicle: Klucel (hydroxypropylcellulose) (HPC).
Setting [4] is: dose: 60.0 mg/kg/injection, schedule: Q01DX005 (ip), vehicle: Klucel (hydroxypropylcellulose) (HPC).
Where [5] appears, read: dose: 120.0 mg/kg/injection, schedule: Q01DX005 (ip), vehicle: Klucel (hydroxypropylcellulose) (HPC).
Setting [6] is: dose: 240.0 mg/kg/injection, schedule: Q01DX005 (ip), vehicle: Klucel (hydroxypropylcellulose) (HPC).
Setting [7] is: dose: 50.0 mg/kg/injection, schedule: Q01DX001 (ip), vehicle: saline with Tween-80.
Setting [8] is: dose: 100.0 mg/kg/injection, schedule: Q01DX001 (ip), vehicle: saline with Tween-80.
Setting [9] is: dose: 50.0 mg/kg/injection, schedule: Q01DX005 (ip), vehicle: Klucel (hydroxypropylcellulose) (HPC).
Where [10] appears, read: dose: 100.0 mg/kg/injection, schedule: Q01DX005 (ip), vehicle: Klucel (hydroxypropylcellulose) (HPC).
Setting [11] is: dose: 200.0 mg/kg/injection, schedule: Q01DX005 (ip), vehicle: Klucel (hydroxypropylcellulose) (HPC).
[12] abbreviates: dose: 100.0 mg/kg/injection, schedule: Q01DX005 (ip), vehicle: saline with Tween-80.
Setting [13] is: dose: 60.0 mg/kg/injection, schedule: Q01DX005 (ip), vehicle: saline with Tween-80.
Where [14] appears, read: dose: 120.0 mg/kg/injection, schedule: Q01DX005 (ip), vehicle: saline with Tween-80.
[15] abbreviates: dose: 240.0 mg/kg/injection, schedule: Q01DX005 (ip), vehicle: saline with Tween-80.
Setting [16] is: dose: 50.0 mg/kg/injection, schedule: Q01DX005 (ip), vehicle: saline with Tween-80.
[17] abbreviates: dose: 200.0 mg/kg/injection, schedule: Q01DX005 (ip), vehicle: saline with Tween-80.
Where [18] appears, read: dose: 100.0 mg/kg/injection, schedule: Q01DX009 (ip), vehicle: saline.

Where “and” joins values, the source holds several entries; their conditions need not be identical. Equal entries are not always repeated. Inconclusive results and toxic doses are left out.

Regarding `CC12CC3CC(C)(C1)CC(C(Cl)C(=O)NC(C)(C)C)(C3)C2` (configuration not stated), the T/C is 97 % of control under setting [1], 100 % of control under setting [2] and 93 % of control under setting [3].

`CC(C)COCC1COC2(OCC(C)(C)C2OC(=O)Nc2ccccc2)O1` (configuration not stated): the T/C under setting [4] was 95 % of control, the T/C under setting [5] was 94 % of control and the T/C under setting [6] is 91 % of control.

As for `CCOC(=O)Nc1cc(NC/C(=N/O)c2ccc([N+](=O)[O-])cc2)c([N+](=O)[O-])c(N)n1`, the T/C is 92 % of control under setting [7]; 92 % of control under setting [8]; 89 % of control (dose: 200.0 mg/kg/injection, schedule: Q01DX001 (ip), vehicle: saline with Tween-80).

As for `CC(=O)OC1C=CCC2C(=O)OC(=O)C12` (configuration not stated), the T/C runs as follows: (dose: 30.0 mg/kg/injection, schedule: Q01DX005 (ip), vehicle: Klucel (hydroxypropylcellulose) (HPC)) 103 % of control and 90 % of control; under setting [4], 100 % of control; under setting [5], 105 % of control and 90 % of control.

`c1ccc2c(c1)-c1nc-2nc2[nH]c(nc3nc(nc4[nH]c(n1)c1ccccc41)-c1ccccc1-3)c1cc3c4nc5nc(nc6[nH]c(nc7nc(nc([nH]4)c3cc21)-c1ccccc1-7)c1ccccc61)-c1ccccc1-5`: the T/C runs as follows: under setting [4], 106 % of control; under setting [5], 100 % of control; under setting [6], 97 % of control.

Turning to `CC1=CCc2c(c(NS(=O)(=O)c3ccccc3)c3ccccc3c2NS(=O)(=O)c2ccccc2)C1`, the T/C (dose: 25.0 mg/kg/injection, schedule: Q01DX001 (ip), vehicle: saline with Tween-80) is 105 % of control; the T/C under setting [7] is 90 % of control; the T/C under setting [8] is 90 % of control.

On to `c1ncn(C23CC4CC(CC(C4)C2)C3)n1`, for which the T/C is 106 % of control (dose: 1.56 mg/kg/injection, schedule: Q01DX001 (ip), vehicle: Klucel (hydroxypropylcellulose) (HPC)); 104 % of control (dose: 3.12 mg/kg/injection, schedule: Q01DX001 (ip), vehicle: Klucel (hydroxypropylcellulose) (HPC)); 107 % of control and 96 % of control (dose: 6.25 mg/kg/injection, schedule: Q01DX001 (ip), vehicle: Klucel (hydroxypropylcellulose) (HPC)).

For the molecule `[O-]c1n[n+](-c2ccccc2)no1`, the T/C (dose: 3.13 mg/kg/injection, schedule: Q01DX009 (ip), vehicle: other) is 97 % of control; the T/C (dose: 6.25 mg/kg/injection, schedule: Q01DX009 (ip), vehicle: other) is 96 % of control; the T/C (dose: 12.5 mg/kg/injection, schedule: Q01DX009 (ip), vehicle: other) is 109 % of control; the T/C (dose: 25.0 mg/kg/injection, schedule: Q01DX009 (ip), vehicle: other) was 101 % of control.

For `O=C(O)c1[nH]c(=O)[nH]c(=O)c1[N+](=O)[O-]`, the T/C under setting [9] was 93 % of control, the T/C under setting [10] is 98 % of control and the T/C under setting [11] was 98 % of control.

For the molecule `CCOC(=O)c1cc(-c2cc(C(=O)OCC)c3ccccc3n2)nc2ccccc12`, the T/C reads like this: (dose: 6.25 mg/kg/injection, schedule: Q01DX005 (ip), vehicle: saline with Tween-80) 96 % of control; (dose: 12.5 mg/kg/injection, schedule: Q01DX005 (ip), vehicle: saline with Tween-80) 95 % of control; (dose: 25.0 mg/kg/injection, schedule: Q01DX005 (ip), vehicle: saline with Tween-80) 100 % of control; under setting [12], 86 % of control.

`CC(=O)OCCN1CCOC(O)(c2cccc(C(F)(F)F)c2)C1` (configuration not stated): the T/C reads like this: under setting [13], 115 % of control; under setting [14], 108 % of control; under setting [15], 113 % of control.

On to `O=c1ccn(C2CCCCC2)c(=O)[nH]1`, for which the T/C is, setting by setting: (dose: 6.25 mg/kg/injection, schedule: Q01DX005 (ip), vehicle: Klucel (hydroxypropylcellulose) (HPC)) 99 % of control; (dose: 12.5 mg/kg/injection, schedule: Q01DX005 (ip), vehicle: Klucel (hydroxypropylcellulose) (HPC)) 95 % of control; (dose: 25.0 mg/kg/injection, schedule: Q01DX005 (ip), vehicle: Klucel (hydroxypropylcellulose) (HPC)) 91 % of control.

For `Cc1cc(NC(=O)C(=O)C(C#N)c2cccc(Cl)c2)no1` (configuration not stated), the T/C is, setting by setting: under setting [16], 100 % of control; under setting [12], 101 % of control; under setting [17], 108 % of control.

Take `C=C[CH2][Sn]([CH2]C)([CH2]C)[CH2]C=C`: the T/C by setting is: (dose: 12.5 mg/kg/injection, schedule: Q01DX005 (ip), vehicle: saline) 107 % of control; (dose: 25.0 mg/kg/injection, schedule: Q01DX005 (ip), vehicle: saline) 114 % of control; (dose: 100.0 mg/kg/injection, schedule: Q01DX005 (ip), vehicle: saline) 154 % of control.

Turning to `Cc1cc2nc(N)sc2cc1C`, the T/C is 98 % of control (dose: 12.5 mg/kg/injection, schedule: Q01DX009 (ip), vehicle: saline); 100 % of control (dose: 25.0 mg/kg/injection, schedule: Q01DX009 (ip), vehicle: saline); 102 % of control (dose: 50.0 mg/kg/injection, schedule: Q01DX009 (ip), vehicle: saline); 102 % of control under setting [18].

For `CCc1cccc(C)c1NC(=O)C(=O)C(C#N)c1ccc(C)cc1` (configuration not stated), the T/C by setting is: under setting [16], 99 % of control; under setting [12], 93 % of control; under setting [17], 103 % of control.

Regarding `CC(C)CC(N)C(=O)O` (configuration not stated), the T/C by setting is: under setting [1], 105 % of control; under setting [2], 105 % of control; under setting [3], 94 % of control.

As for `NC(CCCCCCCCCCCCC(N)C(=O)c1ccccc1)C(=O)c1ccccc1` (configuration not stated), the T/C was 101 % of control under setting [13], 93 % of control under setting [14] and 93 % of control under setting [15].

On to `O=C(NC1COB(c2ccccc2)OC1c1ccc([N+](=O)[O-])cc1)C(Cl)Cl` (configuration not stated), for which the T/C runs as follows: under setting [4], 97 % of control; under setting [5], 97 % of control; under setting [6], 99 % of control.

Consider `O=C(Nc1ccc(S(=O)(=O)O)cc1)c1ccc([N+](=O)[O-])cc1`, for which the T/C reads like this: under setting [18], 100 % of control; (dose: 400.0 mg/kg/injection, schedule: Q01DX009 (ip), vehicle: saline) 109 % of control.

As for `CC(CC(=O)c1ccccc1)=NCCN=C(C)CC(=O)c1ccccc1.c1cc[c]([Sn][c]2ccccc2)cc1`, the T/C runs as follows: (dose: 25.0 mg/kg/injection, schedule: Q01DX001 (ip), vehicle: Klucel (hydroxypropylcellulose) (HPC)) 108 % of control; (dose: 50.0 mg/kg/injection, schedule: Q01DX001 (ip), vehicle: Klucel (hydroxypropylcellulose) (HPC)) 124 % of control.

As to `Cc1cc2cc3c4c(nn5cnnc5c4c2o1)-c1ccccc1CC3`, the T/C runs as follows: under setting [9], 101 % of control; under setting [10], 104 % of control; under setting [11], 98 % of control.
